Results: patent US4650753A, “Novel substrates for use in measuring the concentration of kallikrein in urine” (Nitto Boseki Co., Ltd., priority 1984, dated 1987)

What was measured:
[1] = biological target: T1, Urokinase (UK) (Homo sapiens, UniProt P00749); assay: Substrate specificity test: hydrolysis by urokinase, colorimetric; type: biochemical; settings: for Absorbance (O.D.), UK: 700 nm (CHA substrate, pentacyanoamineferroate), S0 = 0.4 m mole, pH 8.2, 37° C., 5 minutes, 1000 U/ml enzyme
T1 construct: purchased Mochida Pharmaceutical Co., Ltd. Lot No. 2C239
Method: (§1) The specificities of newly synthesized substrates were tested by reacting each of them with various enzymes as follows.
(§2) (1) Substrate solution: 2 m moles/liter.H2 O
(§3) (2) Buffer solutions: 50 m moles of tris(hydroxymethyl)aminomethane/hydrochloric acid buffer solution and 150 m moles/liter of NaCl solution were used, and the reaction pH were specified with respect to the enzymes as follows. […]
(§4) (4) Reaction stopper (PNA): 10%-acetic acid
(§5) (5) Chromogenic reagent (CHA): Pentacyanoamineferroate
(§6) (6) Method of determination:
(§7) 0.3 Milliliter of the buffer solution and 0.1 ml of the enzyme reagent were taken in a hard glass test tube of which surface being treated with silicone, or a plastic test tube and preheated in a thermostat at 37° C. for 5 minutes so as to conduct the enzymatic reaction. Precisely 5 minutes after the reaction was started, 2.0 ml of reaction stopper solution or reaction terminating chromogenic reagent was added to terminate the enzymatic reaction. After the enzymatic reaction was completed, the reaction mixture was allowed to stand at 37° C. for 10 minutes, and then the absorbance at 405 nm or 700 nm was measured.

[2] = biological target: T2, Thrombin (TH) (Bos taurus, UniProt P00735); assay: Substrate specificity test: hydrolysis by thrombin, colorimetric; type: biochemical, Bovine; settings: for Absorbance (O.D.), TH: 700 nm (CHA substrate, pentacyanoamineferroate), S0 = 0.4 m mole, pH 8.5, 37° C., 5 minutes, 4.0 NIH/ml enzyme
T2 construct: purchased Mochida Pharmaceutical Co., Ltd. Lot No. 65146
Method: as §1, §2, §3, §4, §5, §6, §7

[3] = biological target: T3, Plasmin (PL) (Homo sapiens, UniProt P00747); assay: Substrate specificity test: hydrolysis by plasmin, colorimetric; type: biochemical; settings: for Absorbance (O.D.), PL: 700 nm (CHA substrate, pentacyanoamineferroate), S0 = 0.4 m mole, pH 7.8, 37° C., 5 minutes, 0.25 CU/ml enzyme
T3 construct: purchased The Green Cross Corporation Lot No. PL-35
T3 sequence (P00747 581-810 limits assumed): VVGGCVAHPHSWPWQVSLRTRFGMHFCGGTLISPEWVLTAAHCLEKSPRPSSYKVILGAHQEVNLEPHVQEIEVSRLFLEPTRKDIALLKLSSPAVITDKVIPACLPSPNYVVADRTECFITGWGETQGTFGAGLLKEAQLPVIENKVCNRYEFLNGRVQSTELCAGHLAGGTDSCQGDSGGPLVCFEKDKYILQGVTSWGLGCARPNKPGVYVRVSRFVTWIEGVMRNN
T3 sequence (P00747 97-580 partner limits assumed): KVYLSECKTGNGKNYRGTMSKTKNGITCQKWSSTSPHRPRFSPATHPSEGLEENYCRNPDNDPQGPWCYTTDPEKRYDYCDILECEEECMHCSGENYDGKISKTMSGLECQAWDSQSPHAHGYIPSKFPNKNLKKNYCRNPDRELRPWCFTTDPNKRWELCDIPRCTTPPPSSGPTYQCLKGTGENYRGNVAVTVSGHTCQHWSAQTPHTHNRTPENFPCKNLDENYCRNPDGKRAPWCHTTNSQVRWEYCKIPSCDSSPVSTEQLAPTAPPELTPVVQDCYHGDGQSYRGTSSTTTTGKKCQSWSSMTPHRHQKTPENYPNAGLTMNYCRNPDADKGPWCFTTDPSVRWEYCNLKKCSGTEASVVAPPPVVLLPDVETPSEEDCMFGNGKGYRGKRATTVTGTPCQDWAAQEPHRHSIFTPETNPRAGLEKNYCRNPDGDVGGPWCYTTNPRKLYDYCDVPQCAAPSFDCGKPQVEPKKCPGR
Method: as §1, §2, §3, §4, §5, §6, §7

[4] = biological target: T4, Human kallikrein in urine (HUK) (Homo sapiens, UniProt P06870); assay: Substrate specificity test: hydrolysis by human kallikrein in urine, colorimetric; type: biochemical; settings: for Absorbance (O.D.), HUK: 700 nm (CHA substrate, pentacyanoamineferroate), S0 = 0.4 m mole, pH 9.0, 37° C., 5 minutes, 0.1 U/ml enzyme
T4 construct: purchased The Green Cross Corporation Lot No. Y1003SM
T4 sequence (P06870 25-262): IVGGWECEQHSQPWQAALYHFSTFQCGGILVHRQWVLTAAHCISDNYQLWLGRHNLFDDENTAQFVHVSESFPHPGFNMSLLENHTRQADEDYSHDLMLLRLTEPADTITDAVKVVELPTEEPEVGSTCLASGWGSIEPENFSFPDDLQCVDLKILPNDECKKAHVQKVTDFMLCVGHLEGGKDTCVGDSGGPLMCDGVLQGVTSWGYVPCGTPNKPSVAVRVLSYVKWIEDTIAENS
Method: as §1, §2, §3, §4, §5, §6, §7

[5] = PS-2103N given as 100, S0 = 0.4 m mol

Absorbance (O.D.), UK [1] [OD] | Relative reactivity to enzymes, UK [1, 5] | reactivity to urokinase ([1]; relative to PS-2103N = 100) [%] | Absorbance (O.D.), TH [2] [OD] | Relative reactivity to enzymes, TH [2, 5] | reactivity to thrombin ([2]; relative to PS-2103N = 100) [%] | Absorbance (O.D.), PL [3] [OD] | Relative reactivity to enzymes, PL [3, 5] | reactivity to plasmin ([3]; relative to PS-2103N = 100) [%] | Absorbance (O.D.), HUK [4] [OD] | Relative reactivity to enzymes, HUK [4, 5] | Substance
0.0 | 0 | 0 | 0.007 | 7 | 7 | 0.011 | 4 | 4 | 0.599 | 242 | H-D-Ala-Phe-Arg-CHA [PS-2103]
0.003 | – | – | 0.016 | – | – | 0.014 | – | – | 0.244 | – | H-D-Pro-Phe-Arg-CHA [PS-2100]
0.0 | – | – | 0.005 | – | – | 0.016 | – | – | 0.128 | – | H-D-PGlu-Phe-Arg-CHA [PS-2102]
